The structures appear in SMILES notation.

This experiment addresses T1, HIV protease (Human immunodeficiency virus type 1 group M subtype B, UniProt P12497).
T1 construct: the protease expressed in Eschericia coli; made in house; host or cells: Escherichia coli
As to the kind of experiment: Assay for inhibition of microbial expressed viral protease (peptide substrate cleavage, HPLC quantitation). Format: biochemical. Conditions: protease expressed in Eschericia coli; peptide substrate Val-Ser-Gln-Asn-(betanapthyl)Ala-Pro-Ile-Val 0.5 mg/mL; 50 mM Na acetate, pH 5.5, 30°C, 1 hour; read-out: IC₅₀. The protocol:
Assay for Inhibition of Microbial Expressed Viral Protease
Inhibition studies of the reaction of the protease expressed in Eschericia coli with a peptide substrate [Val-Ser-Gln-Asn-(betanapthyl)Ala-Pro-Ile-Val, 0.5 mg/mL at the time the reaction is initiated] were in 50 mM Na acetate, pH 5.5, at 30°C for 1 hour. Various concentrations of inhibitor in 1.0 ul DMAO were added to 25 ul of the peptide solution in water. The reaction is initiated by the addition of 15 ul of 0.33 nM protease (0.11 ng) in a solution of 0.133 M Na acetate pH 5.5 and 0.26% bovine serum albumin. The reaction was quenched with 160 ul of 5% phosphoric acid. Products of the reaction were separated by HPLC (VYDAC wide pore 5 cm C-18 reverse phase, acetonitrile gradient, 0.1% phosphoric acid). The extent of inhibition of the reaction was determined from the peak heights of the products.

As for `COCCOCCOCCOCCOC(=O)N[C@@H](Cc1ccccc1)[C@@H](O)C[C@@H](Cc1ccccc1)C(=O)N[C@H]1c2ccccc2C[C@H]1O` [Compound A, N-(2(R)-hydroxy-1(S)-indanyl)-5(S)-(3,6,9,12-tetraoxatridecyloxycarbonylamino)-4(S)-hydroxy-2(R)-phenylmethyl-6-phenylhexanamide], the IC50 was roughly 5 nM.
